Common to all, as to experiment: Km determination of hydroxy acid oxidase activity (DCIP-coupled)
What all share (assay type): biochemical

The target in one test is T1, human Hao2 (Homo sapiens, UniProt Q9NYQ3).
T1 construct: made in house; host or cells: E. coli BL21-codonplus-RIPL
T1 sequence (Q9NYQ3 1-351): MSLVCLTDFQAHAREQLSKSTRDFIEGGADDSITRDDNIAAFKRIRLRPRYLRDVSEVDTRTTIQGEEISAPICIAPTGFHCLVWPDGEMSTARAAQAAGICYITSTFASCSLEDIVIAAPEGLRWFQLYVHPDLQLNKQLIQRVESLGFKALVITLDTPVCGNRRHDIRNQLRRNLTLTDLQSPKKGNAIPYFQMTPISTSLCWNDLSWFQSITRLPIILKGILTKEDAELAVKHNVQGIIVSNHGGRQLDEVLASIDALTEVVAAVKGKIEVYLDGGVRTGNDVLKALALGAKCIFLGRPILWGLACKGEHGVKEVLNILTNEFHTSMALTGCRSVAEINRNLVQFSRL
Conditions: human Hao2 enzyme activity against the substrate; FIG. 1A. The procedure: (§1) The hydroxyl acid oxidase activity of the Hao enzymes was assayed for oxidation of the enzyme substrate 2-hydroxyoctanoate by monitoring the coupled reduction of 2,6-dichloroindophenol (DCIP) at 605 nm.
(§2) In order to determine the Km of the enzyme for a given substrate, 20 μl/well of various concentrations of the substrate 2-hydroxyoctanoate were diluted in the assay buffer (100 mM Kpi, 1 mM EDTA and 0.1% BSA) and 175 μl/well of 50 μM 2-6-dichloroindophenol (DCIP) diluted in the same assay buffer was added to a 96-well plate. The reaction was started by the addition of 5 μl/well of the Hao enzyme, and the change in A605 at room temperature (18° C.) was measured over time. An extinction coefficient of […] for DCIP at 605 nm may be used for all calculations. One unit of activity may be defined as the reduction of 1 μmol of DCIP in 1 min (see Jones, J. M., et al., J. Biol. Chem. 275:12590-12597, 2000).

Another test has as its target T2, mouse Hao3 (Mus musculus, UniProt Q9NYQ2, S203T).
T2 construct: made in house; host or cells: E. coli BL21-codonplus-RIPL
T2 sequence (Q9NYQ2 1-353 S203T): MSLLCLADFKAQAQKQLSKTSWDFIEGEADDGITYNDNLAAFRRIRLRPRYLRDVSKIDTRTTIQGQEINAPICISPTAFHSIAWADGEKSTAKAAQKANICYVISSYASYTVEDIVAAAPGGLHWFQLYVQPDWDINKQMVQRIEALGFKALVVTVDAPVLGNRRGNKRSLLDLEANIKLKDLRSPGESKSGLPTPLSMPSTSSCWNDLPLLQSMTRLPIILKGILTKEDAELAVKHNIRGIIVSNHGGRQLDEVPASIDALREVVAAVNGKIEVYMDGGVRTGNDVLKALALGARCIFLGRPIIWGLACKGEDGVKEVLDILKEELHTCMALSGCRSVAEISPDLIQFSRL
Conditions: mouse Hao3 enzyme activity against the substrate; FIG. 1C. The procedure:
as §1, §2

In another test the target is T3, rat Hao2 (Rattus norvegicus, UniProt Q07523).
T3 sequence (Q07523 1-353): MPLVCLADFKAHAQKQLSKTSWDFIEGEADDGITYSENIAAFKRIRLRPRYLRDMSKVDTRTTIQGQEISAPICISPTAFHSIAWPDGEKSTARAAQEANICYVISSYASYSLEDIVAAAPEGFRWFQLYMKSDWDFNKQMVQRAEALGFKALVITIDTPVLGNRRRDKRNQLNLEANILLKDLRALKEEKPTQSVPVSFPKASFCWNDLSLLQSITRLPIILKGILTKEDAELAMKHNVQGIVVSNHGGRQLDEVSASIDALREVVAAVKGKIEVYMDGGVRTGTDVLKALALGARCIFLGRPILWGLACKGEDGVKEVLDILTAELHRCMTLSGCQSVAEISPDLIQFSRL
Conditions: rat Hao2 enzyme activity against the substrate; FIG. 1B. On the procedure: as §1, §2

`CCCCCCC(O)C(=O)O` (stereo not drawn) [2-hydroxyoctanoate]: the figures for the Km at human Hao2, at mouse Hao3 and at rat Hao2 were 735 µM, 76 µM and 43 µM, respectively.

These data come from US7727740B1, “Methods for determining whether a chemical agent modulates enzymatic activity of an L-2-hydroxy acid oxidase” (Merck Sharp & Dohme Corp., priority 2005, dated 2010).
